Measured values: patent EP1808172A2, “Botanical extract compositions and methods of use” (The Medical Research and Education Trust, priority 2002, dated 2003)

What was measured:
Type in all cases: cell-based
hERα = target: T1, hERα (Homo sapiens, UniProt P03372); experiment: ERE-LUC reporter gene activation in transfected HEK 293 cells, ER alpha; settings: 0 to 9 µg/ml, 20 hours
T1 construct: expressed in transfected cells; host or cells: HEK 293 cells (ATCC CRL-1573)
Excerpt: (§1) HEK 293 cells (ATCC CRL-1573) were transfected with an expression vector for hERα and hERβ respectively, and an ERE-LUC reporter gene (plus a TK-LUC reporter for normalization) following the protocol of Yoon et al ("Differential activation of wild-type and variant forms of estrogen receptor α by synthetic and natural estrogenic compounds using a promoter containing three estrogen-responsive elements", J. Steroid Biochem. & Molecular Biology (2000), 28: pages 25-32).

hERβ = target: T2, hERβ (Homo sapiens, UniProt Q92731); experiment: ERE-LUC reporter gene activation in transfected HEK 293 cells, ER beta; settings: 0 to 9 µg/ml, 20 hours
T2 construct: expressed in transfected cells; host or cells: HEK 293 cells (ATCC CRL-1573)
Excerpt: as §1

DU-145 cell cycle = experiment: Cell cycle measurement by DNA content flow cytometry, DU-145; settings: DU-145 cells, protocol of Example 3
Experimental: (§2) The cells were washed with phosphate buffered saline (PBS) and fixed in ice-cold 70% ethanol. Aliquots of fixed cells were rehydrated in PBS and stained with 1.0 microgram/milliliter DAPI (4,6-diamidino-2-phenylindole from Eastman Kodak, Rochester, NY), and dissolved in 10 millimolar piperazine-NN-bis-2-ethane-sulfonic acid buffer (Calbiochem, La Jolla, CA) containing 100 millimolar NaCl, 2mM MgCl2 and 0,1% Triton X-100 (Sigma) at pH 6.8 as previously described by Halicka et al. (H. D. Halicka, B. Ardelt, G. Juan, A. Mittelman, S. Chen, F. Traganos and Z. Darzynkiewicz, "Apoptosis and Cell Cycle Effects Induced by Extracts of the Chinese Herbal Preparation of PC SPES", International J. of Oncology (1997), 11: 437-448).
(§3) The cellular DNA content was measured with an ELITE ESP flow cytometer (Coulter Inc., Fl.) using UV laser illumination. The multicycle program was used to deconvolute the DNA frequency histograms to estimate the frequency of cells in different phases of the cell cycle.
A prolongation in the G2M phase leads to the suppression of DU-145 cell proliferation.

LNCaP cell cycle = experiment: Cell cycle measurement by DNA content flow cytometry, LNCaP; settings: LNCaP cells, exposed 24-48 hours
Experimental: as §2, §3

T1 sequence (P03372 whole entry): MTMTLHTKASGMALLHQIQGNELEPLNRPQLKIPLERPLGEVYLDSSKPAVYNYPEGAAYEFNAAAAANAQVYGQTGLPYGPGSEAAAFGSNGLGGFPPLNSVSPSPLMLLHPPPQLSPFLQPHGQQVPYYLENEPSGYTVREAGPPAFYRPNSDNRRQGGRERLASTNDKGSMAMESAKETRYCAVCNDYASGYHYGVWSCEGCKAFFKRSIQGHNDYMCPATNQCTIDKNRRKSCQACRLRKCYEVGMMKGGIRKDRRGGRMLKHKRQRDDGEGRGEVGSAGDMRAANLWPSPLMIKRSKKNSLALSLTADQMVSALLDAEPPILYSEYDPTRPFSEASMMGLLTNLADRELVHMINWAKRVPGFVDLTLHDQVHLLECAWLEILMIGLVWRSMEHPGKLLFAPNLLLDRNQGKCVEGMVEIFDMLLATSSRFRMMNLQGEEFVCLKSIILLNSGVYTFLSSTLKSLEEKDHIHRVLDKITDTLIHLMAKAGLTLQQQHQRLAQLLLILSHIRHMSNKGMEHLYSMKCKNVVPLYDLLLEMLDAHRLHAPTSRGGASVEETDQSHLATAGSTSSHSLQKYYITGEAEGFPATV
T2 sequence (Q92731 whole entry): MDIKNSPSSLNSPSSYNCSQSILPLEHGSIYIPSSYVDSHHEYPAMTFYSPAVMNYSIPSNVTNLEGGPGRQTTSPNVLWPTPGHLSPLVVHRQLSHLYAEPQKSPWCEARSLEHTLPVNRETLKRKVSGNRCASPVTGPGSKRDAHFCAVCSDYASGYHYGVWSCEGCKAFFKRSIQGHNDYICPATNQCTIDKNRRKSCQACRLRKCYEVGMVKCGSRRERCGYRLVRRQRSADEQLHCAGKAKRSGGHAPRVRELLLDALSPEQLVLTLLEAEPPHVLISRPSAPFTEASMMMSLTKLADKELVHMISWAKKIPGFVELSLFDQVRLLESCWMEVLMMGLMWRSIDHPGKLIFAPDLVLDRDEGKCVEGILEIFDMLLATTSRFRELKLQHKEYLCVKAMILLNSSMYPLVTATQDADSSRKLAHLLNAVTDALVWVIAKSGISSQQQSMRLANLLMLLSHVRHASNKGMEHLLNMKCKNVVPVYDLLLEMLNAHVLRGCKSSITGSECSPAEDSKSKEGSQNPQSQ

| Structure (SMILES) | ERα-Luc reporter gene activation (hERα) | ERβ-Luc reporter gene activation (hERβ) | effect on the DU-145 cell cycle (DU-145 cell cycle) | effect on G1, S, and G2M phases of the LNCaP cell cycle (LNCaP cell cycle) |
| --- | --- | --- | --- | --- |
| COc1c(O)cc(O)c2c(=O)cc(-c3ccccc3)oc12 [Wogonin, 5,7-dihydroxy-8-methoxy-flavone] | activated | activated | prolonged the G2M phase | induced a G1 phase arrest |
| O=C(/C=C/c1ccc(O)cc1)c1ccc(O)cc1O [isoliquiritigenin, 2',4,4'-trihydroxychalcone] | activated | activated |  | induced a G2M phase arrest |
